Earlier results on one compound are cited in patent US9463243B2, “Amorphous medicinal fine particles produced by pulsed laser ablation in liquid and the production method thereof” (IMRA AMERICA, INC., priority 2012, dated 2016).

`COc1cc(/C=C/C(=O)CC(=O)/C=C/c2ccc(O)c(OC)c2)ccc1O` [Curcumin, curcumin]: the water solubility entry is listed as “water-insoluble”.
